Results as given in ChEMBL document CHEMBL5729022, “Modulators of methyl modifying enzymes, compositions and uses thereof” (2022).

Assay: Biochemical Assay: EZH2 biochemical assay (IC50): Compound potencies were assessed through incorporation of 3H-SAM into a biotinylated H3 peptide. Specifically, 30 pM PRC2 containing wt EZH2 (pentameric complex prepared in-house) was pre-incubated with 450 nM SAM, 450 nM 3H-SAM, 2 μM H3K27me3 activating peptide (H2N-RKQLATKAAR(Kme3)SAPATGGVKKP-amide) and compounds (as 10 point duplicate dose response titrations in DMSO, final assay 0.8% DMSO (v/v)) for 3-5 h in 50 mM Tris (pH 8.5), 1 mM DTT, 0.07 mM Brij-35, 0.1% BSA, and 0.8% DMSO in a total volume of 12.5 μl. Reaction was initiated with biotinylated H3 substrate peptide (H2N-RKQLATKAAR(Kmel)SAPATGGVKKP-NTPEGBiot) as a 2 μM stock in 12.5 μl of buffer and allowed to react at room temperature for 18-22 h. Quenching was accomplished by addition of 20 μl of STOP solution (50 mM Tris (pH 8.5), 200 mM EDTA, 2 mM SAH). 35 μl of the quenched solution was transferred to streptavidin coated FlashPlates (PerkinElmer), incubated 1-2 h, washed, and read in a TopCount Reader (PerkinElmer). IC50s were calculated in Genedata Screener using non-linear least square four parameter fits, where the four parameters were IC50, Hill slope, pre-transitional baseline (0% INH), and post-transitional baseline (100% INH).

Cc1cc(Cl)c(CNC(=O)c2cc(Cl)c3c(c2C)OC(C)(C2CCN(CC(F)(F)F)CC2)O3)c(=O)[nH]1 (single isomer, unassigned)
IC50: > 10 nM
